The test addresses T1, MHlip (uncultured bacterium, UniProt D3YKV3).
T1 construct: full length, 262 residues, 28,075 Da (theoretical), C-terminal 6xHis tag (pET22b NdeI/XhoI), E. coli BL21(DE3), Ni-NTA; N-terminus MPFAH
Briefly: spectrophotometric p-nitrophenol release at […] nm, initial rates, nonlinear Michaelis-Menten fit. Type of test: biochemical. Conditions: 20 mM Tris-HCl pH 8, 30 °C, pNPA 0-10 mM.

T1 sequence (D3YKV3 1-262 limits assumed): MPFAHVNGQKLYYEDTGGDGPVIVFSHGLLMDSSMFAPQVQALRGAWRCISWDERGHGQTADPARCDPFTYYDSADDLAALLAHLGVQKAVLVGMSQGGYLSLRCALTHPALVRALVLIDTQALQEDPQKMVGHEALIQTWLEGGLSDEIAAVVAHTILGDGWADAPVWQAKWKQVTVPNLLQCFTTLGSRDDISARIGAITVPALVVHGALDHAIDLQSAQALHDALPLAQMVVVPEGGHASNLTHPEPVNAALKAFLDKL

As to `CC(=O)Oc1ccc([N+](=O)[O-])cc1` [pNPA], the Km is reported as 1.2~0.1 mM.

The values above are taken from PMC4009859, “Novel Cold-Adapted Esterase MHlip from an Antarctic Soil Metagenome” (Biology, 2013).
